The source made the active and inactive calls. The calls are words filed in the database; no cut-off is given here.
Each compound was assayed against Neuropilin-1 (Homo sapiens, UniProt O14786) (assay: Inhibition of VEGF165-NRP1 interaction by ELISA). Conditions: not given.
Sequence of Neuropilin-1 (O14786 whole entry): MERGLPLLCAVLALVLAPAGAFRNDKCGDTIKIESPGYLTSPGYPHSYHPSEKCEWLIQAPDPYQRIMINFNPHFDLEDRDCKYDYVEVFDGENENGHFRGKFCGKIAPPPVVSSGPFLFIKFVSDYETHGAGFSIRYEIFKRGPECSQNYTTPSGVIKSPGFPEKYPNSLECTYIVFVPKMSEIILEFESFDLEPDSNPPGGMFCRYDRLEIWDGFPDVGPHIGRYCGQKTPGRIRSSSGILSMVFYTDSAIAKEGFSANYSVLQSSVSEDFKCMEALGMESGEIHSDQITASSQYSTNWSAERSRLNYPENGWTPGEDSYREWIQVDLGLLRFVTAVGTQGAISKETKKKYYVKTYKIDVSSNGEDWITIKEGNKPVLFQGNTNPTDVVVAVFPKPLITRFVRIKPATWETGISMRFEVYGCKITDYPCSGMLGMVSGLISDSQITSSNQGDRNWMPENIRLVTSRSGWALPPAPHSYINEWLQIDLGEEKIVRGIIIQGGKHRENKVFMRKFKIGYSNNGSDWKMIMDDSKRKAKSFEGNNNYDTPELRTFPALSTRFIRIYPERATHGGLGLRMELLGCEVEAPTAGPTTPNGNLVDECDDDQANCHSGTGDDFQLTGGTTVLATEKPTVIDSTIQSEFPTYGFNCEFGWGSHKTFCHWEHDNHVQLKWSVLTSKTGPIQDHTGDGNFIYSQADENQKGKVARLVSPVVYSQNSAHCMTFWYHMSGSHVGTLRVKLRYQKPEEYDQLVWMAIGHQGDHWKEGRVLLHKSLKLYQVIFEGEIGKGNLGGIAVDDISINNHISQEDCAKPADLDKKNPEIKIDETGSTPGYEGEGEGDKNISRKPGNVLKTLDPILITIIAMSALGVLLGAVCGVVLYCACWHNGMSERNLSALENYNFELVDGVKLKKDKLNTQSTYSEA

SMILES	Activity	IC50 [µM]
N#Cc1c(-c2ccccc2)c(N)n2c(Cl)cccc12	inactive	–
N#Cc1c(-c2ccccc2)c(NCCN)n2c(Cl)cccc12	–	43
N#Cc1c(CCO)c(NCCc2ccccc2)n2c(Cl)cccc12	–	13
Cc1cccc(C)c1Nc1c(-c2ccccc2)c(C#N)c2cccc(Cl)n12	–	60
N#Cc1c(C2CCCCC2)c(NCCc2ccccc2)n2c(Cl)cccc12	inactive	–
N#Cc1c(-c2ccccc2)c(NCC(=O)NCc2ccco2)n2c(Cl)cccc12	–	19
CN(C)CCCNc1c(-c2ccccc2)c(C#N)c2cccc(Cl)n12	–	62
CN(CCNc1c(-c2ccccc2)c(C#N)c2cccc(Cl)n12)Cc1ccccc1	–	4
N#Cc1c(CCc2ccccc2)c(NCCc2ccccc2)n2c(Cl)cccc12	–	2
N#Cc1c(-c2ccccc2)c(NC2CCCCC2)n2c(F)cccc12	inactive	–
N#Cc1c(C2CCNCC2)c(NCCc2ccccc2)n2c(Cl)cccc12	–	95
CN(C)CCNc1cccc2c(C#N)c(-c3ccccc3)c(NC3CCCCC3)n12	–	42
CC(=O)Nc1c(-c2ccccc2)c(C#N)c2cccc(Cl)n12	inactive	–
N#Cc1c(-c2ccccc2)c(NC2CCCCC2)n2c(Cl)cccc12	–	29
CN(C)c1ccc(Nc2c(-c3ccccc3)c(C#N)c3cccc(Cl)n23)cc1	–	47
CCN(CC)CCNc1c(-c2ccccc2)c(C#N)c2cccc(Cl)n12	inactive	–
COC(=O)CSc1cccc2c(C#N)c(-c3ccccc3)c(NC3CCCCC3)n12	inactive	–
CSc1cccc2c(C#N)c(-c3ccccc3)c(NC3CCCCC3)n12	inactive	–
N#Cc1c(-c2ccccc2)c(NC(=O)c2ccccc2)n2c(Cl)cccc12	inactive	–
N#Cc1c(-c2ccccc2)c(NC2CCCCC2)n2c(SCC(=O)O)cccc12	inactive	–
N#Cc1c(-c2ccccc2)c(NCc2ccc(Cl)c(Cl)c2)n2c(Cl)cccc12	–	13
N#Cc1c(-c2ccccc2)c(Nc2cccc(N)c2)n2c(Cl)cccc12	–	80
CN(C)CCCOc1cccc2c(C#N)c(-c3ccccc3)c(NC3CCCCC3)n12	–	79

Continued, values first:

Activity	IC50 [µM]	SMILES
–	14	CC(C)(C)c1ccc(-c2c(C#N)c3cccc(Cl)n3c2NCCc2ccccc2)cc1
–	3	N#Cc1c(-c2ccccc2F)c(NCCc2ccccc2)n2c(Cl)cccc12
–	22	Cc1cnc(-c2c(C#N)c3cccc(Cl)n3c2NCCc2ccccc2)s1
–	3	CSc1ccc(-c2c(C#N)c3cccc(Cl)n3c2NCCc2ccccc2)cc1
–	3	N#Cc1c(-c2ccccc2Cl)c(NCCc2ccccc2)n2c(Cl)cccc12
–	3	N#Cc1c(-c2ccccc2)c(NCCc2ccccc2Cl)n2c(Cl)cccc12
–	5	Cc1ccc(-c2c(C#N)c3cccc(Cl)n3c2NCCc2ccccc2)cc1
–	6	N#Cc1c(-c2cccc(S)c2)c(NCCc2ccccc2)n2c(Cl)cccc12
inactive	–	COc1ccc(CNc2c(-c3ccccc3)c(C#N)c3cccc(Cl)n23)c(OC)c1
–	2	COc1cccc(-c2c(C#N)c3cccc(Cl)n3c2NCCc2ccccc2)c1
–	5	COc1ccc(-c2c(C#N)c3cccc(Cl)n3c2NCCc2ccccc2)cc1
–	4	N#Cc1c(-c2ccccc2)c(NCCc2ccc(Cl)cc2)n2c(Cl)cccc12
–	2	N#Cc1c(-c2cccc(F)c2)c(NCCc2ccccc2)n2c(Cl)cccc12
–	3	N#Cc1c(-c2cccc(Cl)c2)c(NCCc2ccccc2)n2c(Cl)cccc12
inactive	–	N#Cc1c(-c2ccnc3ccccc23)c(NCCc2ccccc2)n2c(Cl)cccc12
–	2	N#Cc1c(-c2ccc(Cl)cc2)c(NCCc2ccccc2)n2c(Cl)cccc12
–	6	N#Cc1c(-c2ccncc2)c(NCCc2ccccc2)n2c(Cl)cccc12
–	6	Cc1ccc(C)c(-c2c(C#N)c3cccc(Cl)n3c2NCCc2ccccc2)c1
–	9	COCCNc1c(-c2ccccc2)c(C#N)c2cccc(Cl)n12
–	3	COc1ccccc1-c1c(C#N)c2cccc(Cl)n2c1NCCc1ccccc1
–	2	N#Cc1c(-c2ccccn2)c(NCCc2ccccc2)n2c(Cl)cccc12
–	10	CN(C)CCCOc1ccc(-c2c(C#N)c3cccc(Cl)n3c2NCCc2ccccc2)cc1
–	4	N#Cc1c(-c2ccc(F)c3ccccc23)c(NCCc2ccccc2)n2c(Cl)cccc12
–	2	N#Cc1c(-c2ccccc2)c(NCCc2ccccc2)n2c(Cl)cccc12
–	10	N#Cc1c(-c2ccccc2S)c(NCCc2ccccc2)n2c(Cl)cccc12
–	13	N#Cc1c(-c2ccc(OC(F)(F)F)cc2)c(NCCc2ccccc2)n2c(Cl)cccc12
–	5	N#Cc1c(-c2ccc(F)cc2)c(NCCc2ccccc2)n2c(Cl)cccc12
–	9	Cc1ccccc1-c1c(C#N)c2cccc(Cl)n2c1NCCc1ccccc1
–	4	N#Cc1c(-c2cccnc2)c(NCCc2ccccc2)n2c(Cl)cccc12

These compounds were tested on PC-3 (assay: Inhibition of PC3 cell migration). Conditions: Homo sapiens.
Format: functional, cell-based

SMILES	IC50 [µM]
N#Cc1c(-c2ccccc2)c(NCC(=O)NCc2ccco2)n2c(Cl)cccc12	54
N#Cc1c(-c2ccccc2)c(NC2CCCCC2)n2c(Cl)cccc12	72

Further lines, results first:

IC50 [µM]	SMILES
23	N#Cc1c(-c2ccccc2)c(NCCc2ccccc2Cl)n2c(Cl)cccc12
8	N#Cc1c(-c2cccc(F)c2)c(NCCc2ccccc2)n2c(Cl)cccc12
21	N#Cc1c(-c2ccccc2)c(NCCc2ccccc2)n2c(Cl)cccc12

Each compound was assayed on PC-3 (assay: Toxicity against PC3 cell line by LDH-release assay). Conditions: human.
Format: cell-based

SMILES	Activity
N#Cc1c(-c2ccccc2)c(NCCc2ccccc2Cl)n2c(Cl)cccc12	Non-toxic
N#Cc1c(-c2cccc(F)c2)c(NCCc2ccccc2)n2c(Cl)cccc12	Non-toxic
N#Cc1c(-c2ccccc2)c(NCC(=O)NCc2ccco2)n2c(Cl)cccc12	Non-toxic
N#Cc1c(-c2ccccc2)c(NC2CCCCC2)n2c(Cl)cccc12	Non-toxic
N#Cc1c(-c2ccccc2)c(NCCc2ccccc2)n2c(Cl)cccc12	Non-toxic

Source: ChEMBL document CHEMBL1146846, “Discovery of protein-protein binding disruptors using multi-component condensations small molecules” (Bioorg Med Chem Lett, 2006)
